Assay results: patent US6034246A, “2-arylbenzazole compounds” (Cancer Research Campaign Technology Limited, priority 1995, dated 2000)
pIC50: −log10 of the molar value.

What was measured:
[1] = tested on: LX4; test: in vitro inhibition of growth of human lung cancer cell line LX4 (Table 1); assay type: cell-based
Description: (§1) Tables 1 to 4 at the end of the present description show in vitro test results obtained in various sets of experiments for the cytotoxic activity of several of the benzazole compounds concerned, including also for reference results for the compound CJM 126 and comparative results for compound DF129, when tested against a range of tumor cell lines which includes ovarian, lung and certain colon and renal cancer cells from the National Cancer Institute (USA) collection. As usual the results are expressed in terms of IS50 values (concentration or dosage required to reduce cell growth or proliferation by 50%) calculated from dose-effect curves plotted for cultures of the cells in question.
(§2) In carrying out the in vitro studies, the cytotoxicity assays may be carried out by a method corresponding substantially to the following example:
(§3) Cells were maintained in a continuous logarithmic culture in Dublecco's medium supplemented with 10% fetal calf serum and penicillin (100 IU/ml) and streptomycin ([…]). The cells were mildly trypsinized for passage and for use in assays. On day zero, 100 μl of trypsinized tumor cells (1×10^4 /ml) were plated in the wells of 96-well flat-bottom microtiter plates. The plates were incubated for 2 days at 37° C. and 5% CO2 in air to allow the cells to adhere and resume exponential growth prior to the addition of drugs.
(§4) On day two 50 μl of the highest drug concentration was added to the wells of column 12 and from there serially diluted 3-fold to column 1 by serial transfer of 50 μl using an 8-channel micropipette. The final volume of column 1 was adjusted to 100 μl. No additions were made to the wells of rows A and B, which served as controls. The plates were further incubated for 5 days at 37° C. and 5% CO2 in air. Each compound was tested in duplicate.
(§5) On day 7 the test was terminated by the addition of 100 μl saline containing 0.002% w/v propidium iodide (Sigma), 0.3% drawing ink (Staedtler "Marsmatic 745"--Trade Mark) and 0.5% Triton X-100. The plates were kept at 4° C. overnight before reading on an inverted microscope equipped with an automated scanning stage. Fluorescence intensity was measured in arbitrary units by a photomultiplier. An HP-87 computer controlled the movement of the stage and also collected and processed the data from the multiplier.
(§6) For each compound tested a dose-response curve was obtained and the IC50 value (the drug concentration at 50% inhibition of cell growth) was calculated.

[2] = tested on: MOR/R; test: in vitro inhibition of growth of human lung cancer cell line MOR/R (Table 1); assay type: cell-based; details: MOR/R (multidrug resistant line)
Description: as §1, §2, §3, §4, §5, §6

[3] = tested on: IGR-OV1; test: in vitro activity against human ovarian cell line IGR-OV1 (Table 2); assay type: cell-based; details: IGROV-1
Description: as §1
(§7) In carrying out the in vitro studies, the cytotoxicity assays may be carried out by a method corresponding substantially to the following example: […]
as §5, with “An HP-87 computer controlled the movement of the stage and also collected and processed the data from the multiplier.” left out

[4] = tested on: L23/R; test: in vitro inhibition of growth of human lung cancer cell line L23/R (Table 1); assay type: cell-based
Description: as §1, §2, §3, §4, §5, §6

[5] = tested on: H69/P; test: in vitro inhibition of growth of human lung cancer cell line H69/P (Table 1); assay type: cell-based
Description: as §1, §2, §3, §4, §5, §6

[6] = tested on: CH1-cisR; test: in vitro activity against human ovarian cell line CH1-cisR (Table 2); assay type: cell-based; details: Homo sapiens, CH1cisR
Description: (§8) As usual the results are expressed in terms of IS50 values (concentration or dosage required to reduce cell growth or proliferation by 50%) calculated from dose-effect curves plotted for cultures of the cells in question.
as §2, §3, §4
(§9) The plates were kept at 4° C. overnight before reading on an inverted microscope equipped with an automated scanning stage. Fluorescence intensity was measured in arbitrary units by a photomultiplier. An HP-87 computer controlled the movement of the stage and also collected and processed the data from the multiplier.

[7] = tested on: Renal TK-10; test: in vitro inhibitory activity against human renal cell line TK-10 (Table 3); assay type: cell-based
Description: as §1, §7
as §5, with “An HP-87 computer controlled the movement of the stage and also collected and processed the data from the multiplier.” left out

[8] = estimation of toxicity in tumor-bearing nude mice (body weight, blood cells, survival); assay type: in vivo, mouse
Procedure: In one typical set of experiments, four human breast carcinomas xenotransplanted into female Ncr: nu/nu (Taconic, Germantown, U.S.A.) or male Bom: NMRI-nu/nu mice (Bomholtgaard, Ry, Denmark) were used for the evaluation of antitumor activity. Mice weighing 20-25 g at the start of experiments were held under sterile conditions at 24-26° C., 50% relative humidity and 12 hours light-dark rhythm in laminar flow shelves. The animals received autoclaved food and bedding; the drinking water was filtered and acidified (pH4.0).
The following breast carcinoma cell lines were used: BO; MCF-7 (NCI, U.S.A.); MT-1 and MT-3. The tumors BO and MCF-7 are ER^+ models: the carcinomas MT-1 and MT-3 are ER^- ones. Tumors were transplanted subcutaneously (s.c.) as pieces (2×2 mm) into the left flank of 5-8 nude mice/experimental group. Drug treatment was initiated when the tumors reached a diameter of 4-5 mm. Compounds were solubized with Tween 80 (maximum 10% of final volume) and suspended in saline. Suspensions were preparted freshly for each drug administration and injected in a volume of 0.2 mL/20 g body weight employing a once-weekly schedule (x3). Tumor size was measured twice weekly with a caliper. Median tumor volume/group was related to the first treatment day and expressed as Relative Tumor Volume (RTV). For the estimation of toxicity, body weight was determined twice weekly and the mean percentage body weight change (BCC) was calculated. In one experiment blood was obtained from the retroorbital venous plexus of mice and blood cells were determined with a Coulter counter (Model T41).

[9] = tested on: L88; test: in vitro inhibition of growth of human lung cancer cell line L88 (Table 1); assay type: cell-based
Description: as §1, §2, §3
as §4, with “The plates were further incubated for 5 days at 37° C. and 5% CO2 in air. Each compound was tested in duplicate.” left out
as §5, with “An HP-87 computer controlled the movement of the stage and also collected and processed the data from the multiplier.” left out

[10] = tested on: CH1; test: in vitro activity against human ovarian cell line CH1 (Table 2); assay type: cell-based; details: Homo sapiens
Description: as §8, §2, §3, §4, §9

[11] = tested on: human breast cancer cell lines; test: in vitro inhibition of human breast cancer cell lines; assay type: cell-based; details: words, Table 4
Description: as §1, §2, §3, §4, §5, §6

[12] = tested on: OVCAR-8; test: in vitro activity against human ovarian cell line OVCAR-8 (Table 2); assay type: cell-based
Description: as §1, §7
as §5, with “An HP-87 computer controlled the movement of the stage and also collected and processed the data from the multiplier.” left out

[13] = tested on: A2780-cisR; test: in vitro activity against human ovarian cell line A2780-cisR (Table 2); assay type: cell-based; details: for pIC50: Homo sapiens, A2780cisR, A2780-cisR (platinum-resistant); for activity against A2780-cisR compared to the parental line A2780: words, Table 2
Description: as §8, §2, §3, §4, §9

[14] = tested on: Colon HCC-2998; test: in vitro inhibitory activity against human colon cell line HCC-2998 (Table 3); assay type: cell-based
Description: as §1, §7
as §5, with “An HP-87 computer controlled the movement of the stage and also collected and processed the data from the multiplier.” left out

[15] = tested on: Colon SW-620; test: in vitro inhibitory activity against human colon cell line SW-620 (Table 3); assay type: cell-based
Description: as §1, §7
as §5, with “An HP-87 computer controlled the movement of the stage and also collected and processed the data from the multiplier.” left out

[16] = tested on: MOR/P; test: in vitro inhibition of growth of human lung cancer cell line MOR/P (Table 1); assay type: cell-based; details: MOR/P (parental line)
Description: as §1, §2, §3, §4, §5, §6

[17] = tested on: MDA 468; test: in vitro inhibitory activity against human breast tumour cell line MDA 468 (Table 4); assay type: cell-based; details: initial seeding density 2.5 × 10^2 cells/well
Description: as §1, §2, §3, §4, §5, §6
*Initial seeding density 2.5 × 10^2 cells/well

[18] = tested on: MOR/CPR; test: in vitro inhibition of growth of human lung cancer cell line MOR/CPR (Table 1); assay type: cell-based; details: for pIC50: Homo sapiens, MOR/CPR (cisplatin resistant line); for activity against MOR/CPR relative to MOR/P and MOR/R: words, Table 1
Description: as §1, §2, §3, §4, §5, §6

[19] = MCF-7, optimum dose 12.5 mg/Kg/inj i.p., qd 12, 19, 26
[20] = MCF-7, optimum dose 200 mg/Kg/inj i.p., qd 12, 19, 26

Structure (SMILES)	pIC50 [1]	pIC50 [2]	pIC50 [3]	pIC50 [4]	pIC50 [5]	pIC50 [6]	pIC50 [7]	pIC50 [9]	pIC50 [10]	potency against breast cancer cells relative to CJM 126 [11]	pIC50 [12]	pIC50 [13]	activity against A2780-cisR compared to the parental line A2780 [13]	pIC50 [14]	pIC50 [15]	pIC50 [16]	pIC50 [17]	pIC50 [18]	activity against MOR/CPR relative to MOR/P and MOR/R [18]	also measured
Cc1cc(-c2nc3ccccc3s2)ccc1N [DF203, 2-(4'-amino-3'-methylphenyl)benzothiazole]	< 5.00	7.15	> 7.00	< 5.00	< 5.00	4.38	> 6.00	5.22	4.72	more potent than even the compound CJM 126	< 4.00	4.74	increased activity	> 6.00	< 4.00	7.00	> 9.00	7.40	more active against the MOR/CPR line than against the two other lines	BWC (body weight change) ([8]; BO, optimum dose 25 mg/Kg/inj i.p., qd 27, 34, 41): -9%; BWC (body weight change) [8, 19]: -12%; Platelets (% of controls) [8, 19]: 108 % of controls; WBC, white blood cells (% of controls) [8, 19]: 100 % of controls; overall change in white blood cell or platelet counts ([8]; MCF-7 test, words): no overall change; BWC (body weight change) ([8]; MT-1, optimum dose 6.25 mg/Kg/inj i.p., qd 7, 14, 21): -3%; BWC (body weight change) ([8]; MT-3, optimum dose 12.5 mg/Kg/inj i.p., qd 7, 14, 21): -3%; bone marrow toxicity ([8]; mouse, in vivo): not dose-limiting; survivors ([8]; mouse, in vivo, 25 mg/kg): only one survivor; toxicity ([8]; mouse, in vivo, 25 mg/kg): toxic
Nc1ccc(-c2nc3ccccc3s2)cc1I [DF129, 2-(4'-amino-3'-iodophenyl)benzothiazole]	< 5.00	7.00	> 7.00	< 5.00	< 5.00	4.08	> 6.00	7.30	4.52	more potent than even the compound CJM 126	< 4.00	4.39	increased activity	> 6.00	~4.00	6.52	> 9.00	7.60	more active against the MOR/CPR line than against the two other lines	BWC (body weight change) ([8]; BO, optimum dose 200 mg/Kg/inj i.p., qd 27, 34, 41 (Table 6)): -14%; BWC (body weight change) [8, 20]: -14%; Platelets (% of controls) [8, 20]: 106 % of controls; WBC, white blood cells (% of controls) [8, 20]: 112 % of controls
